Data reported in patent US7423149B2, “Substituted n-aryl amidines as selective D1 dopamine receptor antagonists for the treatment of obesity and CNS disorders” (Schering Corporation, priority 2003, dated 2008).

Target: T1, human Dopamine D1 receptor (Homo sapiens, UniProt P21728)
T1 construct: expressed in transfected cells; host or cells: Ltk- cells (mouse fibroblasts), membrane preparation
Experiment: radioligand binding competition assay, displacement of [3H]SCH 23390 from D1 receptor (Ltk-cells membranes);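 on D1 binding and D2:D1 Selectivity: under 5 nM class also requires D2 to D1 selectivity above 500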
Settings: class combines Ki (D1) and, for A and B, D2:D1 selectivity (Ki D2 / Ki D1); read-out: D1 binding and D2:D1 Selectivity
From the text: (§1) Biological Activity: Compounds from this disclosure have been biologically characterized by their ability to displace a known D1-like selective ligand, [3H]SCH 23390 from the human Dopamine D1 receptor, and a known D2-like selective ligand, [3H] Methylspiperone, from the human Dopamine D2 and D4 receptors.
(§2) Affinity values (Ki) of compounds at human dopamine receptors were ascertained using radioligand binding competition assays. Cells expressing D1 (Ltk-cells), D2 (long variant, Ltk-cells), D4 (CHO cells) and D5 (GH4C1 cells) receptors were lysed in hypotonic buffer for membrane preparation. Membranes were incubated with various concentrations of test compound and 1 nM [3H] SCH 23390 (D1 and D5) and 0.2 nM [3H] Methylspiperone for (D2 and D4) assays. Non-specific binding was defined as binding in the presence of 10 micromolar of SCH 23390 for D1 and D5 assays and 10 micromolar butaclamol for D2 and D4 assays. Following incubation to equilibrium (1 hour at room temperature), bound radioligand was separated from free by rapid filtration. Bound radioactivity on the dried filters was quantified by liquid scintillation counting.
(§3) Selectivity is determined by dividing Ki for D2, D4 or D5 receptors by Ki for D1 receptor.

T1 sequence (P21728 whole entry): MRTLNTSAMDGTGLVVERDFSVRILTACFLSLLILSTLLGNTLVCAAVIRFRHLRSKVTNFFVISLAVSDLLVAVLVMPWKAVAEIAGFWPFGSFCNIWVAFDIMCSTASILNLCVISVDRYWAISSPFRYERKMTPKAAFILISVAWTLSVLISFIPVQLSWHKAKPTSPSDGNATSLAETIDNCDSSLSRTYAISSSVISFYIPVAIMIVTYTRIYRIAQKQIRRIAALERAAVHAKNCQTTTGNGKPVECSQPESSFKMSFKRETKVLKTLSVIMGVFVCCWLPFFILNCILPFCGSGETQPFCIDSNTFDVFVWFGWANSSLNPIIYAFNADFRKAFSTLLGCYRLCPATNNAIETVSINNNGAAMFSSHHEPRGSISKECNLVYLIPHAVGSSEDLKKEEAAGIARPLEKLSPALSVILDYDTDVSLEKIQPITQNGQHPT

**Q.** For N=C(/C=C/c1ccc(N2CCNCC2)cc1Cl)Nc1ccc(Cl)cc1 [Example 42, (E)-N-(4-Chlorophenyl)-3-[2-chloro-4(piperazin-1-yl)phenyl]-2-propenimidamide], which Ki is on record?
**A.** < 5 nM

**Q.** N=C(/C=C/c1ccc(-n2ccnc2)cc1)Nc1ccc(Cl)cc1 [Example 88] was tested. Which Ki did it give?
**A.** 50 to 10000 nM

**Q.** Which Ki does the source give for N=C(Nc1ccc(Cl)cc1)c1ccc2[nH]ccc2c1 [Example 89] here?
**A.** 50 to 10000 nM

**Q.** How did the Ki turn out when N=C(/C=C/c1ccc(N2CCCC2)cc1)Nc1ccc(Cl)cc1 [Example 90] was run?
**A.** 50 to 10000 nM

**Q.** COc1ccc(/C=C/C(=N)Nc2cccc(C#N)c2)cc1 [Example 91] was tested. Which Ki did it give?
**A.** 50 to 10000 nM

**Q.** With N=C(/C=C/c1ccc(O)c(Cl)c1)Nc1ccc(Cl)cc1 [Example 92] as the compound, how does the Ki read?
**A.** 50 to 10000 nM

**Q.** For N=C(/C=C/c1ccc(N2CCN(c3cccc(Cl)c3)CC2)cc1)Nc1ccc(Cl)cc1 [Example 93], which Ki is on record?
**A.** 50 to 10000 nM

**Q.** COc1cccc2ccc(C(=N)Nc3ccc(Cl)cc3)nc12 [Example 94, N-(4-chloro-phenyl)-8-methoxy-quinoline-2-carboxamidine] was tested. Which Ki did it give?
**A.** 50 to 10000 nM

**Q.** Which Ki does the source give for Cc1ccc(C)n1-c1ccc(/C=C/C(=N)Nc2ccc(Cl)cc2)cc1 [Example 95] here?
**A.** 50 to 10000 nM

**Q.** How did the Ki turn out when COc1ccc(NC(=N)/C=C/c2ccc(N3CCNCC3)cc2Cl)cc1Cl [Example 96] was run?
**A.** 50 to 10000 nM

**Q.** N=C(Nc1ccc(Cl)cc1)c1ccc2cc(N3CCN(C4CCCCC4)CC3)ccc2c1 [Example 97] was tested. Which Ki did it give?
**A.** 50 to 10000 nM

**Q.** How did the Ki turn out when N=C(/C=C/c1ccc(N)cc1)Nc1ccc(Cl)cc1 [Example 98] was run?
**A.** 50 to 10000 nM

**Q.** Which Ki does the source give for N=C(/C=C/c1ccc(-c2cc(F)cc(F)c2)cc1)Nc1ccc(Cl)cc1 [Example 99] here?
**A.** 50 to 10000 nM

**Q.** How did the Ki turn out when CCn1c2ccccc2c2cc(/C=C/C(=N)Nc3ccc(Cl)cc3)ccc21 [Example 100] was run?
**A.** 50 to 10000 nM

**Q.** With CN(C)c1ccc(/C=C/C(=N)Nc2ccc(Cl)cc2)c2ccccc12 [Example 101] as the compound, how does the Ki read?
**A.** 50 to 10000 nM

**Q.** For N=C(/C=C/c1ccc(Cl)c(Cl)c1)Nc1ccc(Cl)cc1 [Example 102], which Ki is on record?
**A.** 50 to 10000 nM

**Q.** How did the Ki turn out when N=C(/C=C/c1c(Cl)cccc1Cl)Nc1ccc(Cl)cc1 [Example 103] was run?
**A.** 50 to 10000 nM

**Q.** For N=C(/C=C/c1ccc(N2CCN(c3ccccc3)CC2)cc1)Nc1ccc(Cl)cc1 [Example 104], which Ki is on record?
**A.** 50 to 10000 nM

**Q.** For N=C(/C=C/c1ccc2c(c1)OCCO2)Nc1ccc(Cl)cc1 [Example 105], which Ki is on record?
**A.** 50 to 10000 nM

**Q.** Which Ki does the source give for N=C(Nc1ccc(Cl)cc1)c1ccc2cc(O)ccc2c1 [Example 106, N-(4-chloro-phenyl)-6-hydroxy-naphthalene-2-carboxamidine] here?
**A.** 50 to 10000 nM

**Q.** How did the Ki turn out when COc1ccc(-c2ccc(/C=C/C(=N)Nc3ccc(Cl)cc3)cc2)cc1OC [Example 107] was run?
**A.** 50 to 10000 nM

**Q.** How did the Ki turn out when N=C(/C=C/c1ccc(CN2CCCC2)cc1)Nc1ccc(Cl)cc1 [Example 108] was run?
**A.** 50 to 10000 nM

**Q.** Which Ki does the source give for N=C(/C=C/c1cc(Cl)cc(Cl)c1)Nc1ccc(Cl)cc1 [Example 109] here?
**A.** 50 to 10000 nM

**Q.** For N=C(/C=C/c1ccc(CNCc2ccccc2)cc1)Nc1ccc(Cl)cc1 [Example 110], which Ki is on record?
**A.** 50 to 10000 nM

**Q.** Which Ki does the source give for N=C(/C=C/c1ccc(-c2ccc(CO)cc2)cc1)Nc1ccc(Cl)cc1 [Example 111] here?
**A.** 50 to 10000 nM

**Q.** Which Ki does the source give for CN1CCN(c2ccc3cc(C(=N)Nc4ccc(Cl)cc4)ccc3c2)CC1 [Example 112] here?
**A.** 50 to 10000 nM

**Q.** How did the Ki turn out when COc1ccccc1C1CCN(c2ccc(/C=C/C(=N)Nc3ccc(Cl)cc3)cc2)CC1 [Example 113] was run?
**A.** 50 to 10000 nM

**Q.** Which Ki does the source give for N=C(/C=C/c1ccccc1)Nc1ccc(Cl)cc1 [Example 114] here?
**A.** 50 to 10000 nM

**Q.** CCCCN(CCCC)c1ccc(/C=C/C(=N)Nc2ccc(Cl)cc2)cc1 [Example 115] was tested. Which Ki did it give?
**A.** 50 to 10000 nM

**Q.** Which Ki does the source give for N=C(/C=C/c1ccc(CN2CCOCC2)cc1)Nc1ccc(Cl)cc1 [Example 116] here?
**A.** 50 to 10000 nM

**Q.** COc1ccc(NC(=N)/C=C/c2ccccc2)cc1 [Example 117] was tested. Which Ki did it give?
**A.** 50 to 10000 nM

**Q.** For N=C(Nc1ccc(Cl)cc1)c1ccc(-c2ccccc2)cc1 [Example 118], which Ki is on record?
**A.** 50 to 10000 nM

**Q.** For COc1ccc2cc(C(=N)Nc3ccc(Cl)cc3F)ccc2c1 [Example 119], which Ki is on record?
**A.** 50 to 10000 nM

**Q.** N=C(/C=C/c1ccc(-c2cccc(C(=O)O)c2)cc1)Nc1ccc(Cl)cc1 [Example 120] was tested. Which Ki did it give?
**A.** 50 to 10000 nM

**Q.** With COc1ccc(NC(=N)/C=C/c2ccc(Cc3cccnc3)cc2)cc1 [Example 121] as the compound, how does the Ki read?
**A.** 50 to 10000 nM

**Q.** With N=C(/C=C/c1ccc(-c2ccc(C(F)(F)F)cc2)cc1)Nc1ccc(Cl)cc1 [Example 122] as the compound, how does the Ki read?
**A.** 50 to 10000 nM

**Q.** N=C(/C=C/c1ccc(N2CCNCC2)cc1Cl)Nc1ccc(O)c(Cl)c1 [Example 123] was tested. Which Ki did it give?
**A.** 50 to 10000 nM

**Q.** With N=C(/C=C/c1ccc(Cc2cccnc2)cc1)Nc1ccc(OC(F)(F)F)cc1 [Example 124] as the compound, how does the Ki read?
**A.** 50 to 10000 nM

**Q.** For CO/N=C(/C)c1ccc(-c2ccc(/C=C/C(=N)Nc3ccc(Cl)cc3)cc2)cc1 [Example 125, N-(4-chloro-phenyl)-3-[4′-(1-methoxyimino-ethyl)-biphenyl-4-yl]-acrylamidine], which Ki is on record?
**A.** 50 to 10000 nM

**Q.** Which Ki does the source give for N=C(/C=C/c1ccc(N2CCCC3CCCCC32)cc1)Nc1ccc(Cl)cc1 (centres unmarked) [Example 126] here?
**A.** 50 to 10000 nM

**Q.** Which Ki does the source give for N=C(Nc1ccc(Cl)cc1)c1ccc2ccccc2n1 [Example 127] here?
**A.** 50 to 10000 nM

**Q.** With N=C(/C=C/c1ccc(Cc2cccnc2)cc1)Nc1ccc(Cl)c(O)c1 [Example 128] as the compound, how does the Ki read?
**A.** 50 to 10000 nM

**Q.** With COc1ccc(/C=C/C(=N)Nc2ccc(OC)c(OC)c2)cc1 [Example 129] as the compound, how does the Ki read?
**A.** 50 to 10000 nM

**Q.** COc1ccc(/C=C/C(=N)Nc2ccc(C)c([N+](=O)[O-])c2)cc1 [Example 130] was tested. Which Ki did it give?
**A.** 50 to 10000 nM

**Q.** Which Ki does the source give for CC(C)(C)c1ccc(-c2ccc(/C=C/C(=N)Nc3ccc(Cl)cc3)cc2)cc1 [Example 131] here?
**A.** 50 to 10000 nM

**Q.** Which Ki does the source give for N=C(Cc1ccc2ccccc2c1)Nc1ccc(Cl)cc1 [Example 132] here?
**A.** 50 to 10000 nM

**Q.** For COc1ccc(/C=C/C(=N)Nc2ccc(C(C)(C)C)cc2)cc1 [Example 133], which Ki is on record?
**A.** 50 to 10000 nM

**Q.** Which Ki does the source give for N=C(CCc1ccc(Cc2c[nH]cn2)cc1)Nc1ccc(Cl)cc1 [Example 134] here?
**A.** 50 to 10000 nM

Same assay, conditions: human D1 receptor, [3H] SCH 23390; read-out: Ki (D1) value

**Q.** With N=C(/C=C/c1ccc(N2CCNCC2)cc1Cl)Nc1ccc(Cl)cc1 [Example 42, (E)-N-(4-Chlorophenyl)-3-[2-chloro-4(piperazin-1-yl)phenyl]-2-propenimidamide] as the compound, how does the Ki read?
**A.** 0.9 nM

Target: T2, human Dopamine D2 receptor (Homo sapiens, UniProt P14416)
T2 construct: expressed in transfected cells; host or cells: Ltk- cells (mouse fibroblasts), membrane preparation
T2 sequence (P14416 whole entry): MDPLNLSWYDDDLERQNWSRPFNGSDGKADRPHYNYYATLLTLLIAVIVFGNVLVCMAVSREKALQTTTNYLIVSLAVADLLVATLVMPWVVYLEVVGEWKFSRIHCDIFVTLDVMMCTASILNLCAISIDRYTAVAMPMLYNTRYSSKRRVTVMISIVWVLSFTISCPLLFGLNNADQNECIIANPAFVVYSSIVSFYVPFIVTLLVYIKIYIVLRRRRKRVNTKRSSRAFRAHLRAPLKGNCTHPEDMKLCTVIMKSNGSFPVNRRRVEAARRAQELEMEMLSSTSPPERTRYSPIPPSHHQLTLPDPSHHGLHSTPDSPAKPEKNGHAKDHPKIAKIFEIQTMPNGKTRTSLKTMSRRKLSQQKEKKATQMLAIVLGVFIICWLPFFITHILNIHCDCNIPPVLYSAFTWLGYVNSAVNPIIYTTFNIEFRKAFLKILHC
Experiment: radioligand binding competition assay, displacement of [3H] Methylspiperone from D2 receptor (long variant, Ltk-cells membranes)
Settings: Ki for D2 divided by Ki for D1
From the text: as §1, §2, §3

**Q.** N=C(/C=C/c1ccc(N2CCNCC2)cc1Cl)Nc1ccc(Cl)cc1 [Example 42, (E)-N-(4-Chlorophenyl)-3-[2-chloro-4(piperazin-1-yl)phenyl]-2-propenimidamide] was tested. Which “D2:D1 ratio value” did it give?
**A.** 1258.5
